Assay results from patent publication US20240376076A1, “INHIBITORS TARGETING UBIQUITIN SPECIFIC PROTEASE 7 (USP7)” (Dana-Farber Cancer Institute, Inc., priority 2021, published 2024).
Where two headings read alike, the source gives them in different places.

Key:
[1] = target: T1, USP7, Active human recombinant protein (Homo sapiens, UniProt Q93009); experiment: USP7 assay (Ubiquitin-Rhodamine 110 enzymatic assay); type: biochemical
T1 construct: purchased CP Lot; 20200225001
Summary of the method: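 Human recombinant USP7 (0.05 nM final) preincubated with compound, 10-point 3-fold series, 15 min at RT. Reaction started with 190 nM ubiquitin-rhodamine 110. Fluorescence (ex 485/em 535 nm) read kinetically 20 min. Slopes normalized to enzyme+substrate and substrate-only controls; IC50 from curve fit.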

[2] = mouse liver microsomal stability (Microsome Assay Protocol); type: in vitro ADME; conditions: pH 7.4; mouse liver microsomes, NADPH, 37° C.; read-out: MLM t1/2, min
Summary of the method: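 Compound at 1.5 μM was mixed with 0.75 mg/mL mouse liver microsomes in 0.1 M potassium phosphate, 1.0 mM EDTA, pH 7.4, then started with NADPH from a 6 mM stock after 5 min preincubation at 37 °C. Samples taken at 0, 5, 15, 30 and 45 min were quenched with acetonitrile containing internal standard and analysed by LC/MS.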

[3] = plasma stability (Plasma Assay Protocol); type: in vitro ADME; conditions: 37° C., t1/2 extrapolated if >50% remaining at 60 min, ∞ if near 100% remaining
Procedure: ND refers to not disclosed.
• 1. Preheated 0.05 M sodium phosphate and 0.07 M NaCl buffer, pH 7.4. Dissolved 14.505 g/L Na2HPO4·12H2O, 1.483 g/L NaH2PO4·2H2O and 4.095 g/L NaCl in deionized water. The basic solution was then titrated with the phosphoric acid to pH 7.40. Stored in fridge up to 7 days. Checked pH on the day of experiment and adjust if outside specification of 7.4+/−0.1. • 2. Plasma preparation: • Thawed frozen plasma by placing at 37° C. quickly. Centrifuged plasma at 3,000 rpm for 8 minutes to remove clots, pipetted and pooled the supernatant as the plasma to be used in the experiment. Checked and recorded the pH of the plasma. Only used plasma within the range of pH 7.4 to pH 8. If higher than pH 8, discarded the plasma. By using a 5% CO2 incubator and PBS buffer, a pH of 7.4 was reached after the 4 hour equilibrium dialysis time. Put the plasma on ice until used. • 3. Tested compounds and reference compounds spiking solution: • 0.5 mM test compounds spiking solution A: Added 10 μL of 10 mM test compounds stock solution to 190 μL DMSO. • 0.02 mM spiking solution B: Added 40 μL of spiking solution A to 960 μL of […] Sodium phosphate buffer with 0.5% BSA.
Pre-warmed the plasma and spiking solution B at 37° C. for 5 min. Added 10 μL of pre-warmed spiking solution B into the wells designated for all the time points (5, 15, 30, 45, 60 min).
For 0-min, added 400 μL of acetonitrile (ACN) containing the internal standard (IS) to the wells of 0-min plate and then added 90 μL of plasma. Added 90 μL of pre-warmed plasma into the wells designated for the time points (0, 5, 15, 30, 45, 60 min), and started timing. At 5, 15, 30, 45, 60 min, added 400 μL of ACN containing IS to the wells of corresponding plates, respectively, to stop the reaction. After quenching, shook the plates at the vibrator (IKA, MTS 2/4) for 10 min (600 rpm/min) and then centrifuged at 5594 g for 15 min (Thermo Multifuge×3R). Transferred 50 μL of the supernatant from each well into a 96-well sample plate containing 50 μL of ultra pure water (Millipore ZMQS50F01) for LC/MS analysis.

T1 sequence (Q93009 whole entry): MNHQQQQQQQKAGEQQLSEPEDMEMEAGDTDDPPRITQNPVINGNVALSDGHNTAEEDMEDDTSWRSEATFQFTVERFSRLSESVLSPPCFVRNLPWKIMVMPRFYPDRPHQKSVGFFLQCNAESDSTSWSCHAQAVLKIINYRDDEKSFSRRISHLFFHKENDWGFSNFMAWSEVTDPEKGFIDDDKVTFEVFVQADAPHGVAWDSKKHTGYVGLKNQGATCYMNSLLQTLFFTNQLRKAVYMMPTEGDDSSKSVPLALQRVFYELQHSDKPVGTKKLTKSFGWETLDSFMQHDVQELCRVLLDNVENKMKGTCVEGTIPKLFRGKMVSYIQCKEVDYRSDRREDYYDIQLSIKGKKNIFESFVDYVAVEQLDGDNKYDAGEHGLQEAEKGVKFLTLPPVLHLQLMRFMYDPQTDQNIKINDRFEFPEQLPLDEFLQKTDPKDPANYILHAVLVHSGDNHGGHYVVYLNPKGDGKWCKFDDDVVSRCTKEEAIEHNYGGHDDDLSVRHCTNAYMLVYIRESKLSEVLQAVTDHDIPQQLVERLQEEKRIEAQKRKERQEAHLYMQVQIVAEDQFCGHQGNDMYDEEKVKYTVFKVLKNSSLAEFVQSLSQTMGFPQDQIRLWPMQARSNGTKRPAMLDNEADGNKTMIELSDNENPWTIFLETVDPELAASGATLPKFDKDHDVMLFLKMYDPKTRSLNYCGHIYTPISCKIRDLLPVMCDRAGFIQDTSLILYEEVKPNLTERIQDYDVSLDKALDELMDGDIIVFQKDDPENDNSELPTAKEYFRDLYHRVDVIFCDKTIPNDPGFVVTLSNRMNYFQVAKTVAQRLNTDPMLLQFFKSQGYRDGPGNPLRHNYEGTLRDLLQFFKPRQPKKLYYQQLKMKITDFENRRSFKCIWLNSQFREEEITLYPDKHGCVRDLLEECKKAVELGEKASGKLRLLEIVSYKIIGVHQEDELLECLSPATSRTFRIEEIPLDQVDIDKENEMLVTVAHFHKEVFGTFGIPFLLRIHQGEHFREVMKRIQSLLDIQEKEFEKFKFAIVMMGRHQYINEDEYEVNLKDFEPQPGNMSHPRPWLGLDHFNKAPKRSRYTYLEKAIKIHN

Row | SMILES | IC50 ([1]; read-out: IC50) [µM] | half-life at 1 µM [2] [min] | half-life at 2 µM [3] [h] | IC50 ([1]; 1 h, read-out: IC50, μM (1 h)) [µM] | IC50 ([1]; 6 h, read-out: IC50, μM (6 h)) [µM] | IC50 ([1]; 16 h, read-out: IC50, μM (16 h)) [µM] | Plasma t1/2, min [3]
1 | CN1CCN(CCC(=O)Nc2ccc3c(=O)n(CC4(O)CCN(C(=O)[C@@H](CCCNC(=O)c5ccc6c(Cl)cc(-c7ccc(F)cc7)nc6c5)Cc5ccccc5)CC4)cnc3c2)CC1 [Compound 5, (S)—N-(4-benzyl-5-(4-hydroxy-4-((7-(3-(4-methylpiperazin-1-yl)propanamido)-4-oxoquinazolin-3(4H)-yl)methyl)piperidin-1-yl)-5-oxopentyl)-4-chloro-2-(4-fluorophenyl)quinoline-7-carboxamide] | 0.1 to 1 | 18 | 5.33 | – | – | – | –
2 | CN1CCN(CCC(=O)Nc2ccc3c(=O)n(CC4(O)CCN(C(=O)[C@@H](CCCNC(=O)c5ccc6c(Cl)cc(-c7cnn(CC(F)(F)F)c7)nc6c5)Cc5ccccc5)CC4)cnc3c2)CC1 [Compound 20] | 0.02 to 0.1 | 25.8 | 3.77 | – | – | – | –
3 | CN1CCN(CCC(=O)Nc2ccc3c(=O)n(CC4(O)CCN(C(=O)C(CCCNC(=O)c5ccc6c(Cl)cc(C7CC7)nc6c5)Cc5ccccc5)CC4)cnc3c2)CC1 (centres unmarked) [Compound 22] | 0.02 to 0.1 | 18.3 | 2.25 | – | – | – | –
4 | C=CS(=O)(=O)Nc1ccccc1-c1ccc(C(=O)N2CCC(O)(Cn3cnc4cc(NC(=O)CCN5CCN(C)CC5)ccc4c3=O)CC2)cc1 [Compound 23, N-(3-((4-hydroxy-1-(2′-(vinylsulfonamido)-[1,1′-biphenyl]-4-carbonyl)piperidin-4-yl)methyl)-4-oxo-3,4-dihydroquinazolin-7-yl)-3-(4-methylpiperazin-1-yl)propanamide] | 0.02 to 0.1 | 49.3 | 0.175 | – | – | – | –
5 | CN1CCN(CCOc2ccc3c(=O)n(CC4(O)CCN(C(=O)C(CCCNC(=O)c5ccc6c(Cl)ccnc6c5)Cc5ccccc5)CC4)cnc3c2)CC1 (centres unmarked) [Compound 30, N-(4-benzyl-5-(4-hydroxy-4-((7-(2-(4-methylpiperazin-1-yl)ethoxy)-4-oxoquinazolin-3(4H)-yl)methyl)piperidin-1-yl)-5-oxopentyl)-4-chloroquinoline-7-carboxamide] | 0.02 to 0.1 | 15.7 | 112 | – | – | – | –
6 | CN(C)CCC(=O)Nc1ccc2c(=O)n(CC3(O)CCN(C(=O)C(CCCNC(=O)N4CCc5c(Cl)ccnc5C4)Cc4ccccc4)CC3)cnc2c1 (centres unmarked) [Compound 43] | 0.02 to 0.1 | 8.3 | 3.09 | – | – | – | –
7 | O=C(CCN1CCNCC1)Nc1ccc2c(=O)n(CC3(O)CCN(C(=O)C(CCCNC(=O)c4ccc5c(Cl)ccnc5c4)Cc4ccccc4)CC3)cnc2c1 (centres unmarked) [Compound 61, N-(4-benzyl-5-(4-hydroxy-4-((4-oxo-7-(3-(piperazin-1-yl)propanamido)quinazolin-3(4H)-yl)methyl)piperidin-1-yl)-5-oxopentyl)-4-chloroquinoline-7-carboxamide] | 0.02 to 0.1 | 28.4 | 3.22 | – | – | – | –
8 | CN(C)CCC(=O)Nc1ccc2c(=O)n(CC3(O)CCN(C(=O)C(CCCNC(=O)c4ccc5c(Cl)ccnc5c4)Cc4ccccc4)CC3)cnc2c1 (centres unmarked) [Compound 62] | 0.02 to 0.1 | 12.3 | 3.23 | – | – | – | –
9 | CN(C)CCC(=O)Nc1ccc2c(=O)n(CC3(O)CCN(C(=O)C4CCN(CCNC(=O)c5ccc6c(Cl)ccnc6c5)C[C@H]4c4ccccc4)CC3)cnc2c1 (some centres unmarked) [Compound 73] | 0.02 to 0.1 | 46.8 | 3.19 | – | – | – | –
10 | CN(C)CCC(=O)Nc1ccc2c(=O)n(CC3(O)CCN(C(=O)[C@@H]4CCN(CCNC(=O)c5ccc6c(Cl)ccnc6c5)C[C@H]4c4ccccc4)CC3)cnc2c1 [Compound 75] | < 0.02 | 69.4 | 1.12 | – | – | – | –
11 | CN(C)CCC(=O)Nc1ccc2c(=O)n(CC3(O)CCN(C(=O)C(CCc4ncc(-c5ccc6c(Cl)ccnc6c5)o4)Cc4ccccc4)CC3)cnc2c1 (centres unmarked) [Compound 77] | 0.02 to 0.1 | 1.73 | 2.68 | – | – | – | –
12 | CN(C)CCC(=O)Nc1ccc2c(=O)n(CC3(O)CCN(C(=O)C(CCCC(=O)Nc4ccc5c(Cl)ccnc5c4)Cc4ccccc4)CC3)cnc2c1 (centres unmarked) [Compound 78] | < 0.02 | 14.6 | 1.29 | – | – | – | –
13 | CCc1cc(Cl)c2ccc(C(=O)NCCCC(Cc3ccccc3)C(=O)N3CCC(O)(Cn4cnc5cc(NC(=O)CCN(C)C)ccc5c4=O)CC3)cc2n1 (centres unmarked) [Compound 79] | 0.02 to 0.1 | 10.5 | 3.91 | – | – | – | –
14 | CN(C)CCC(=O)Nc1ccc2c(=O)n(CC3(O)CCN(C(=O)C(CCCNC(=O)c4ccc5c(F)ccnc5c4)Cc4ccccc4)CC3)cnc2c1 (centres unmarked) [Compound 87] | < 0.02 | 23.2 | 1.01 | – | – | – | –
15 | CN(C)CCC(=O)Nc1ccc2c(=O)n(CC3(O)CCN(C(=O)C(CCCNC(=O)c4ccc5c(Cl)c6c(nc5c4)C4CCC6C4)Cc4ccccc4)CC3)cnc2c1 (centres unmarked) [Compound 91] | 0.02 to 0.1 | 2.97 | 5.59 | – | – | – | –
16 | C=CS(=O)(=O)Nc1ccccc1N1CCC(C(=O)N2CCC(O)(Cn3cnc4cc(NC(=O)CCN5CCN(C)CC5)ccc4c3=O)CC2)[C@H](c2ccccc2)C1 (some centres unmarked) [Compound 93] | < 0.02 | 14.7 | 0.172 | – | – | – | –
17 | CN1CCN(CCC(=O)Nc2ccc3c(=O)n(CC4(O)CCN(C(=O)C5CCN(c6cccc7c6CN(C#N)C7)C[C@H]5c5ccccc5)CC4)cnc3c2)CC1 (some centres unmarked) [Compound 94] | 0.1 to 1 | 30.8 | 0.0218 | – | – | – | –
18 | C=CC(=O)Nc1ccccc1N1CCC(C(=O)N2CCC(O)(Cn3cnc4cc(NC(=O)CCN5CCN(C)CC5)ccc4c3=O)CC2)C(c2ccccc2)C1 (centres unmarked) [Compound 102] | 0.1 to 1 | 26.9 | 0.0708 | – | – | – | –
19 | C=CC(=O)Nc1ccncc1N1CCC(C(=O)N2CCC(O)(Cn3cnc4cc(NC(=O)CCN5CCN(C)CC5)ccc4c3=O)CC2)C(c2ccccc2)C1 (centres unmarked) [Compound 106] | – | 39 | 0.113 | 0.1 to 1 | < 0.02 | < 0.02 | –
20 | CC(C)c1cnc2cc(C(=O)NCCN3CCC(C(=O)N4CCC(O)(Cn5cnc6cc(OCCN7CCNCC7)ccc6c5=O)CC4)C(c4ccccc4)C3)ccc2c1Cl (centres unmarked) [Compound 108] | < 0.02 | 14 | – | – | – | – | ∞*
21 | O=C(NCCN1CCC(C(=O)N2CCC(O)(Cn3cnc4cc(OCCN5CCNCC5)ccc4c3=O)CC2)C(c2ccccc2)C1)c1ccc2c(F)ccnc2c1 (centres unmarked) [Compound 109] | < 0.02 | 22.4 | 1.7 | – | – | – | –
22 | CN(C)CCOc1cc(F)c2c(=O)n(CC3(O)CCN(C(=O)C4CCN(CCNC(=O)c5ccc6c(Cl)ccnc6c5)CC4c4ccccc4)CC3)cnc2c1 (centres unmarked) [Compound 112] | 0.1 to 1 | 45.3 | 5.08 | – | – | – | –
23 | CN(C)CCC(=O)Nc1ccc2c(=O)n(CC3(O)CCN(C(=O)[C@H](CCCNC(=O)c4ccc5c(Cl)c6c(nc5c4)CCC6)Cc4ccccc4)CC3)cnc2c1 [Compound 114] | < 0.02 | 4.13 | 11.7 | – | – | – | –
24 | CN(C)CCCOc1ccc2c(=O)n(CC3(O)CCN(C(=O)C(CCCNC(=O)c4ccc5c(Cl)cc(C6CC6)nc5c4)Cc4ccccc4)CC3)cnc2c1 (centres unmarked) [Compound 116] | < 0.02 | 27.1 | – | – | – | – | ∞*
25 | CN(C)CCOc1ccc2c(=O)n(CC3(O)CCN(C(=O)[C@H](CCCNC(=O)c4ccc5c(Cl)cc(C6CC6)nc5c4)Cc4ccccc4)CC3)cnc2c1 [Compound 117] | 0.02 to 0.1 | 20.3 | – | – | – | – | ∞*
26 | CN1CCN(c2ccc3c(=O)n(CC4(O)CCN(C(=O)[C@H](CCCNC(=O)c5ccc6c(Cl)cc(C7CC7)nc6c5)Cc5ccccc5)CC4)cnc3c2)CC1 [Compound 122] | 0.02 to 0.1 | 3090 | 3.77 | – | – | – | –
